The text below walks through data of ChEMBL document CHEMBL6182939, “Searching for Synthetic Opioid Rescue Agents. 2: Identification of an Ultra-Potent Synthetic Opioid Rescue Agent” (J Med Chem, 2025).

The term IC50 denotes the point on the concentration scale where inhibition reaches its midpoint. Broadly, the half-life is the time in which the quantity being followed falls by half. For orientation: inhibition means the relative decrease from the control value, in per cent. A lower inhibition goes with little suppression. As usually defined, the Cmax is the maximum level reached in the sampled fluid or tissue.

Data set [1] deals with T1, Delta-type opioid receptor (Homo sapiens, UniProt P41143). Briefly: Antagonist activity against human DOR expressed in CHO-K1 cells assessed as maximal inhibition of forskolin-induced cAMP accumulation pretreated for 15 mins followed by forskolin addition measured after 30 mins by HitHunter cAMP assay normalized to naltrexone. Format: functional, cell-based. As to conditions: filed as antagonist, time 45.0 min. A general note: cAMP levels reflect the balance of adenylyl cyclase and phosphodiesterase activity.
T1 sequence (P41143 whole entry): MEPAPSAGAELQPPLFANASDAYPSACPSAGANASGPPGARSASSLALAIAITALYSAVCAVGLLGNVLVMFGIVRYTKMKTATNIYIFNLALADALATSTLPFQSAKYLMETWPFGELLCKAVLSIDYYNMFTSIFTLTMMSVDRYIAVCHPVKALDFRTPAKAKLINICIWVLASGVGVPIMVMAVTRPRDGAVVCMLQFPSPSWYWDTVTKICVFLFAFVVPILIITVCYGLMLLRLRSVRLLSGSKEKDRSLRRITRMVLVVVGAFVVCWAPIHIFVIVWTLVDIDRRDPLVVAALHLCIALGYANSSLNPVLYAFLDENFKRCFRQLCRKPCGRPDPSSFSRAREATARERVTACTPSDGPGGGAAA

For data set [2], the target named is T2, Sodium-dependent dopamine transporter (Homo sapiens, UniProt Q01959). Kind of data set: Inhibition of Dopamine transporter (unknown origin) assessed as maximal response.
T2 sequence (Q01959 whole entry): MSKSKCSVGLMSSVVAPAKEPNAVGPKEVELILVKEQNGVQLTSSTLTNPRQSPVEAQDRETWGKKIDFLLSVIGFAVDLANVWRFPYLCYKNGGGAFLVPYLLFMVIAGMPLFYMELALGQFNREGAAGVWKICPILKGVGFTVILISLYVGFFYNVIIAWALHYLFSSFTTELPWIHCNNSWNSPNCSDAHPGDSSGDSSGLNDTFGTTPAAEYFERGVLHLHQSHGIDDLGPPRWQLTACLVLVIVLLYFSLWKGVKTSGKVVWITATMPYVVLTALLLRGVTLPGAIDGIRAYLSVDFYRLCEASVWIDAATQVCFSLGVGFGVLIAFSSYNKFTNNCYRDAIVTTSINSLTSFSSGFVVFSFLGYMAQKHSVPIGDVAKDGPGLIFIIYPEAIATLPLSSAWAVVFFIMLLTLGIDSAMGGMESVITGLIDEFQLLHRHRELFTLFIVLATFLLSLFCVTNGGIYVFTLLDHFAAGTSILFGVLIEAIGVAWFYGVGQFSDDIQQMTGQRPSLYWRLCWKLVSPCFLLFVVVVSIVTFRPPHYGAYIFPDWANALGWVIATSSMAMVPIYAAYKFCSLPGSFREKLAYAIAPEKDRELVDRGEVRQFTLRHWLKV
Data set [3] has as its target Glutamate [NMDA] receptor (Homo sapiens) (UniProt Q05586+Q12879+Q13224+O15399+O60391+Q14957+Q8TCU5). Briefly: Inhibition of NMDA receptor (unknown origin) assessed as maximal response. Format: protein-complex assay.
In data set [4] the target is D(2) dopamine receptor (Homo sapiens) (UniProt P14416). Kind of data set: Antagonist activity at D2S receptor (unknown origin) assessed as maximal response. As to conditions: filed as antagonist.
Sequence of D(2) dopamine receptor (Homo sapiens) (P14416 whole entry): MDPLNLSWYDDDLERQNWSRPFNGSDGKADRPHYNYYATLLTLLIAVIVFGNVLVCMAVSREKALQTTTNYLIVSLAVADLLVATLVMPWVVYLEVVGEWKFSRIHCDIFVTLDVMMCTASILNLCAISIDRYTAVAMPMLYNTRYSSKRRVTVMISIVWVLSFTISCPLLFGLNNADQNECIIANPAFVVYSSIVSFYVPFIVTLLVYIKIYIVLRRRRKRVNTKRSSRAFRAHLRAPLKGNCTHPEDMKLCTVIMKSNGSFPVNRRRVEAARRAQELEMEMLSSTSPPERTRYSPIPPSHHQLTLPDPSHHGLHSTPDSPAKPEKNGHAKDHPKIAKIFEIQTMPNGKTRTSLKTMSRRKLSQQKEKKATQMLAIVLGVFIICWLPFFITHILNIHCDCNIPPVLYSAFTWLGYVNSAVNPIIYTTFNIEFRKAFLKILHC
For data set [5], the target named is T3, Sodium-dependent noradrenaline transporter (Homo sapiens, UniProt P23975). Kind of data set: Inhibition of Norepinephrine transporter (unknown origin) assessed as maximal response.
T3 sequence (P23975 whole entry): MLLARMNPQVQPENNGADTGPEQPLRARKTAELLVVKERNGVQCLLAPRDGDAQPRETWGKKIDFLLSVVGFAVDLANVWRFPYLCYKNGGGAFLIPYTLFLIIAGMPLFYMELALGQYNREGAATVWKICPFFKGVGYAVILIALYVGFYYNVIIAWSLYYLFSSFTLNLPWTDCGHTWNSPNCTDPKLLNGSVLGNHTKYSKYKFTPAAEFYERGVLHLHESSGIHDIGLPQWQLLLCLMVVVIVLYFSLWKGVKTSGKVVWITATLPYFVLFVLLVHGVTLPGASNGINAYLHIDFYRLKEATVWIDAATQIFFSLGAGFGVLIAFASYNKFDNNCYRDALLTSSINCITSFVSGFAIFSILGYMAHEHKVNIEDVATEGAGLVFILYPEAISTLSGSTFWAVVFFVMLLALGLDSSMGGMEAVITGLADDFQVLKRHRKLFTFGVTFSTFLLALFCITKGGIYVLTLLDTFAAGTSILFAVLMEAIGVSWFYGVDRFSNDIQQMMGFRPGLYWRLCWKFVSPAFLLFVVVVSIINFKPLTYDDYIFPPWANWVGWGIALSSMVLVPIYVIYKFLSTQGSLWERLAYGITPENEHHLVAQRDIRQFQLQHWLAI
Data set [6] addresses T4, Rho-associated protein kinase 1 (Homo sapiens, UniProt Q13464). Briefly: Inhibition of ROCK1 (unknown origin) assessed as maximal response.
Data set [7] addresses Alpha-1A adrenergic receptor (Homo sapiens) (UniProt P35348). Briefly: Antagonist activity at alpha1A adrenoreceptor (unknown origin) assessed as maximal response. As to conditions: filed as antagonist.
Another data set deals with Mu-type opioid receptor (Homo sapiens, UniProt P35372). Format: functional, cell-based, CHO-K1.
Sequence of Mu-type opioid receptor (P35372 whole entry): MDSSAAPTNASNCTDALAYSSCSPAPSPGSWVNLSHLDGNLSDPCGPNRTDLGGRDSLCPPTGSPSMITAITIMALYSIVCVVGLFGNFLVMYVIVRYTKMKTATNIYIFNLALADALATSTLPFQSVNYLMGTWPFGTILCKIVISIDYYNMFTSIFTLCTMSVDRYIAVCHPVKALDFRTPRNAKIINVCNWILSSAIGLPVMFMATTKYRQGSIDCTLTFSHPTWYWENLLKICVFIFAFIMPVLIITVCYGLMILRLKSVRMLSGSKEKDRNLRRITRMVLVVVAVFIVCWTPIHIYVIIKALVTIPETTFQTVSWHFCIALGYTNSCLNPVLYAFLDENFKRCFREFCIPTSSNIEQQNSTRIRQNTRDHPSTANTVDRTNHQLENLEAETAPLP
Data set [8] deals with T1, Delta-type opioid receptor.
Another data set concerns the target T5, Cytochrome P450 1A2 (Homo sapiens, UniProt P05177).
T5 sequence (P05177 whole entry): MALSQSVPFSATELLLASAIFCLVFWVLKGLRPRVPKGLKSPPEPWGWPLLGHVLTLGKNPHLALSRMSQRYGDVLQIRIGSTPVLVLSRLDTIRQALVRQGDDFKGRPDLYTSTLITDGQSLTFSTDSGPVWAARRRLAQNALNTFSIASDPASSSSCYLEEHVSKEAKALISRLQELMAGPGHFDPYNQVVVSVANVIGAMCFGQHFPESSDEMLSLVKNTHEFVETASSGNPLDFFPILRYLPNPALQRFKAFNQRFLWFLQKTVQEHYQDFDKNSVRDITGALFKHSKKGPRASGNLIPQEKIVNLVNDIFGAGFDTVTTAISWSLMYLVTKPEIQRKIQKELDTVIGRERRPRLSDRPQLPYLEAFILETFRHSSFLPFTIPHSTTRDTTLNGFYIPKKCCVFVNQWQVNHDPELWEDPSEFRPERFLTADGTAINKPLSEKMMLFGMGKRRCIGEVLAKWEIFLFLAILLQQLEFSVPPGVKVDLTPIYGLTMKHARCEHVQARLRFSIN
Kind of data set: (§1) Inhibition of CYP1A2 in human liver microsomes at 10 uM relative to control. Format: ADME, Microsome. Conditions: microsomes, 10 µM. (In general: Liver microsomes are a subcellular fraction often used to study metabolism.)

For a further data set, the target named is Cytochrome P450 2D6 (Homo sapiens, UniProt P10635). Briefly: (§2) Inhibition of CYP2D6 in human liver microsomes at 10 uM relative to control. It is filed as ADME, Microsome. Conditions: microsomes, 10 µM.
Sequence of Cytochrome P450 2D6 (P10635 whole entry): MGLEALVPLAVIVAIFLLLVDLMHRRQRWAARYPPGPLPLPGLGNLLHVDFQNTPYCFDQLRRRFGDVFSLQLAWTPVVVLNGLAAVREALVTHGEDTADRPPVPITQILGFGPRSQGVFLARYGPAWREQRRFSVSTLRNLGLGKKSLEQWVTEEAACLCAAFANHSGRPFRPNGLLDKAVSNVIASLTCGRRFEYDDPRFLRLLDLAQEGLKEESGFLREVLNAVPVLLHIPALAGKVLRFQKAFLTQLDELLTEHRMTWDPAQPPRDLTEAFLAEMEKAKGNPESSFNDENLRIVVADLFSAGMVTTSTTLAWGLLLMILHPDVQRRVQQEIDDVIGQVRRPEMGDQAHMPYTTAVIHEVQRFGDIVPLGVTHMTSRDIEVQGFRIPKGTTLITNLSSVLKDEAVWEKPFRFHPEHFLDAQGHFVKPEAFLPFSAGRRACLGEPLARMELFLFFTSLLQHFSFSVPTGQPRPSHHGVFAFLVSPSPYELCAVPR
The next data set deals with Cytochrome P450 2C9 (Homo sapiens, UniProt P11712). Briefly: (§3) Inhibition of CYP2C9 in human liver microsomes at 10 uM relative to control. It is filed as ADME, Microsome. As to conditions: microsomes, 10 µM.
Sequence of Cytochrome P450 2C9 (P11712 whole entry): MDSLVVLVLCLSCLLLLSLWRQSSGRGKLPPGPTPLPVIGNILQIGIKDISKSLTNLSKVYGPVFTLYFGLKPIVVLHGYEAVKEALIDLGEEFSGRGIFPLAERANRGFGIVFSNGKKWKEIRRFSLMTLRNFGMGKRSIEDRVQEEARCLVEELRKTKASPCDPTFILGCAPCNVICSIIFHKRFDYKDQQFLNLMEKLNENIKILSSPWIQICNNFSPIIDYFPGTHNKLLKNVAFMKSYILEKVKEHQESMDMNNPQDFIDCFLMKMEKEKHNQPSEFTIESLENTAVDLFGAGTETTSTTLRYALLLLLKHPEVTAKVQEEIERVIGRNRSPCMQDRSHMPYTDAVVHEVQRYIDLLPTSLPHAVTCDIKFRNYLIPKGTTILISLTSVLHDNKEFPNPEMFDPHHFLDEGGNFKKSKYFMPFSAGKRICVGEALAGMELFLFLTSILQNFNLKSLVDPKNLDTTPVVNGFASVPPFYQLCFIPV
Data set [9] can be described thus: Metabolic stability in human liver microsomes assessed as half life. Conditions: for t1/2: microsomes. It is filed as ADME, Microsome.
The next data set deals with Cytochrome P450 3A4 (Homo sapiens, UniProt P08684). Kind of data set: (§4) Inhibition of CYP3A4 in human liver microsomes at 10 uM relative to control. Format: ADME, Microsome. As to conditions: microsomes, 10 µM.
Sequence of Cytochrome P450 3A4 (P08684 whole entry): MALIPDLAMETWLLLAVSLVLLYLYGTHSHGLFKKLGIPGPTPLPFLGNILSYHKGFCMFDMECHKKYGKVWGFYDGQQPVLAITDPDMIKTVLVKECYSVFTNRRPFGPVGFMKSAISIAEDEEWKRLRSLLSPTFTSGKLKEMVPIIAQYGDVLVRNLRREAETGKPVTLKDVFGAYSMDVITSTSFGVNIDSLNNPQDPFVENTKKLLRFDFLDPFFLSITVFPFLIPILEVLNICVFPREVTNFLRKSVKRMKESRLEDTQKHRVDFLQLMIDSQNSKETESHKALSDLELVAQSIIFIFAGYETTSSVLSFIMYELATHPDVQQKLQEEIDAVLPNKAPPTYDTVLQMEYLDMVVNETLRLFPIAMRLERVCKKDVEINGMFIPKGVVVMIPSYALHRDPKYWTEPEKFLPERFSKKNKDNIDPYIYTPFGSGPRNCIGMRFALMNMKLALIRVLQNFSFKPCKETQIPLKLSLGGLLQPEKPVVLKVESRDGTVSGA
Another data set has as its target Cytochrome P450 2C19 (Homo sapiens, UniProt P33261). Kind of data set: (§5) Inhibition of CYP2C19 in human liver microsomes at 10 uM relative to control. As to conditions: microsomes, 10 µM. It is filed as ADME, Microsome.
Data set [10] can be described thus: Metabolic stability in mouse liver microsomes assessed as half life. Format: ADME, Microsome. As to conditions: for t1/2: microsomes.
Data set [11] deals with Kappa-type opioid receptor (Homo sapiens, UniProt P41145). Format: functional, cell-based, CHO-K1.
Sequence of Kappa-type opioid receptor (P41145 whole entry): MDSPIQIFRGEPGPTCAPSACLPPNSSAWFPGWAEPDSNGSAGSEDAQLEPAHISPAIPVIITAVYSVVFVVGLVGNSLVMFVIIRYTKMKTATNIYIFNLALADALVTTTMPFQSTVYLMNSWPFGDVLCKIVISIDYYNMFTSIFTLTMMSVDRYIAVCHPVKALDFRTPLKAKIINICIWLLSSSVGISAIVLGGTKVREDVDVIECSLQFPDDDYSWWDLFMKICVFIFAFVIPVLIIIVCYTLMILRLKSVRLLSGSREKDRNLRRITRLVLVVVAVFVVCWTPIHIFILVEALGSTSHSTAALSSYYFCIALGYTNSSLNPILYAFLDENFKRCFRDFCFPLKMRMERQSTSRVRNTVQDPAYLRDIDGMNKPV
Data set [12] can be described thus: Half life in Sprague-Dawley rat plasma at 2 mg/kg, ip by LC-MS/MS analysis. It is filed as ADME, organism-based.
A further data set has as its target CYP1A2 (Homo sapiens, UniProt P05177). The description is as §1. It is filed as ADME, Microsome. Conditions: liver microsomes.
For a further data set, the target named is CYP2D6 (Homo sapiens, UniProt P10635). The data set is described as §2. It is filed as ADME, Microsome. As to conditions: liver microsomes.
Sequence of CYP2D6 (P10635 whole entry): as the sequence (P10635 whole entry) above
The target of another data set is CYP2C9 (Homo sapiens, UniProt P11712). The data set is described as §3. It is filed as ADME, Microsome. Conditions: liver microsomes.
In another data set the target is CYP3A4 (Homo sapiens, UniProt P08684). Described as §4. It is filed as ADME, Microsome. Conditions: liver microsomes.
Sequence of CYP3A4 (P08684 whole entry): as the sequence (P08684 whole entry) above
Another data set concerns the target CYP2C19 (Homo sapiens, UniProt P33261). Described as §5. It is filed as ADME, Microsome. Conditions: liver microsomes.
The target of data set [13] is Glutamate [NMDA] receptor. Kind of data set: Inhibition of NMDA receptor (unknown origin). It is filed as protein-complex assay, Homo sapiens.
Data set [14] addresses T3, Sodium-dependent noradrenaline transporter. Briefly: Inhibition of Norepinephrine transporter (unknown origin).
In data set [15] the target is Voltage-gated inwardly rectifying potassium channel KCNH2 (Homo sapiens, UniProt Q12809). Kind of data set: Inhibition of hERG channel. Format: toxicity. In general terms: Block of hERG is tested as a sign of cardiac risk.
The target in the next data set is hERG (KCNH2) (Homo sapiens, UniProt Q12809). Kind of data set: Inhibition of hERG channel assessed as maximal response. Conditions: read-out: Imax. Format: toxicity.
The nature of data set [16]: Metabolic stability in mouse liver microsomes assessed as intrinsic clearance. It is filed as ADME, Microsome.
Data set [17] addresses T4, Rho-associated protein kinase 1. Briefly: Inhibition of ROCK1 (unknown origin).
The target of data set [18] is T2, Sodium-dependent dopamine transporter. Briefly: Inhibition of Dopamine transporter (unknown origin).
The nature of data set [19]: Cmax in Sprague-Dawley rat plasma at 2 mg/kg, ip by LC-MS/MS analysis. It is filed as ADME, organism-based.
Data set [20] in a line: Cmax in Sprague-Dawley rat plasma at 1 mg/kg, ip by LC-MS/MS analysis. It is filed as ADME, organism-based.
A short description of data set [21]: Drug uptake in Sprague-Dawley rat brain at 1 mg/kg, ip by LC-MS/MS analysis. Conditions: in vivo. Format: ADME, organism-based.
Data set [22] can be described thus: Half life in Sprague-Dawley rat plasma at 1 mg/kg, ip by LC-MS/MS analysis. Format: ADME, organism-based.

The structures appear in SMILES notation.

Sequence of Cytochrome P450 2C19 (P33261 whole entry): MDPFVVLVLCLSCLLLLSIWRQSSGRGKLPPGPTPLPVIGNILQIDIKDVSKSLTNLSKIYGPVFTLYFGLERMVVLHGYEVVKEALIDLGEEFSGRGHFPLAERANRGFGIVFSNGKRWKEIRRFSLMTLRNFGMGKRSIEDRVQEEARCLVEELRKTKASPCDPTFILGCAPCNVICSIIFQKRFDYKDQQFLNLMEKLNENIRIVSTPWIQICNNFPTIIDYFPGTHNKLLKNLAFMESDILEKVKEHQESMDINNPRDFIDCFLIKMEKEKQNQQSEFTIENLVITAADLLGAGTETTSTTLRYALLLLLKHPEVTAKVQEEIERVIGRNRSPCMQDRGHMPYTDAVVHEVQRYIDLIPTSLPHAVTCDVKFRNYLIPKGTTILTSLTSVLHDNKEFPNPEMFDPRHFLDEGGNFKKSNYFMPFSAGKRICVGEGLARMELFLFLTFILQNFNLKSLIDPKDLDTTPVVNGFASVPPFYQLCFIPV

In the case of `C=CCN1CC[C@]23c4c5ccc(O)c4O[C@H]2[C@@H](OCCOCCOCCOCCOCCOCCOCCOC)CC[C@@]3(O)[C@H]1C5`, the Imax in data set [1] turned out to be 103%.

Consider `NC(=O)c1ccc(Oc2ccc(CNCCc3ccccc3)cc2)nc1` [listing 1 of 2 here], for which the Imax in data set [2] worked out at 71.5%; in [3] it was 64.3%; in data set [1] it was 230%; in data set [5] it was 83.9%; in data set [6], 76.1%; in [7], 99.9%. In addition, the Emax in [4] stood at 99.4%.

Take `NC(=O)c1ccc(Oc2ccc(CNCCc3ccccc3)cc2OCc2ccccc2)nc1`: the half-inhibitory concentration (IC50) at Mu-type opioid receptor is 3.16 nM; in data set [8], 3.98 nM. The Imax in [1] turned out to be 152%.

On to `C=C1CC[C@@]2(O)[C@H]3Cc4ccc(O)c5c4[C@@]2(CCN3CC2CC2)[C@H]1O5`, for which the “inhibition (INH)” value at Cytochrome P450 1A2 was found to be 0%; against Cytochrome P450 2D6 it was 68.2%; on Cytochrome P450 2C9, 0%; at Cytochrome P450 3A4, 0.2%; at Cytochrome P450 2C19, 0%. Besides, the t1/2 is listed as more than 145 min in data set [9] and 87.1 min in [10].

For `C=CC[N+]1(C)CC[C@]23c4c5ccc(O)c4O[C@H]2C(=O)CC[C@@]3(O)[C@H]1C5` (stereo partly drawn) [NALOXONE METHIODIDE], on Mu-type opioid receptor, 631 nM corresponded to half-maximal inhibition (IC50).

As to `NC(=O)c1ccc(Oc2ccc(CNCCc3ccccc3)cc2Cl)nc1`, the “inhibition (INH)” value came to 12.1% on Cytochrome P450 1A2; 45.4% on Cytochrome P450 2D6; 4.8% on Cytochrome P450 2C9; 0% against Cytochrome P450 3A4; 9.1% against Cytochrome P450 2C19. For the same compound, on Mu-type opioid receptor, the IC50 was 1.26 nM. Also, the t1/2 in [9] came out at 110.2 min; in [10], 13.6 min. Further, the Imax in [1] was 158%.

Consider `NC(=O)c1ccc(Oc2ccc(CNCCc3ccccc3)cc2)cc1`, for which the “inhibition (INH)” value against Cytochrome P450 1A2 was 0%; on Cytochrome P450 2D6, 66.4%; on Cytochrome P450 2C9 it was 9.5%; at Cytochrome P450 3A4, 0%; at Cytochrome P450 2C19, 27.7%. The results for the t1/2 in data set [9] and in data set [10] were more than 145 min and 7.6 min, respectively. In addition, the IC50 in [11] was 10 nM.

`COc1cc(CNC2Cc3ccccc3C2)ccc1Oc1ccc(C(N)=O)cn1`: the values for the IC50 (on Mu-type opioid receptor; in data set [8]; in data set [11]) were 0.398 nM, 0.631 nM and 10 nM, respectively. Also, the Imax in data set [1] came out at 168%.

The compound `CC(C)(NC(=O)C1=C(O)[C@@H]2Oc3c(O)ccc4c3[C@@]23CCN(CC2CC2)[C@H](C4)[C@]3(O)C1)c1nc(-c2ccccc2)no1` [NALDEMEDINE] gave an IC50 against Mu-type opioid receptor of 3.16 nM. This counts as single-digit nanomolar.

For the compound `COc1cc(CNCCC(C)C)ccc1Oc1ccc(C(N)=O)cn1`, the “inhibition (INH)” value is recorded as 0% against Cytochrome P450 1A2; 35.2% on Cytochrome P450 2D6; 9.7% against Cytochrome P450 2C9; 3.8% at Cytochrome P450 3A4; 21.7% against Cytochrome P450 2C19. Besides, the IC50 at Mu-type opioid receptor was 2 nM; in data set [8] it was 5.01 nM. For the same compound, the t1/2 in [9] and in [10] was more than 145 min each time. In [1], the Imax was 187%.

For the compound `COc1cc(CNCCc2ccccc2)ccc1Oc1ccc(C(N)=O)cn1`, the “inhibition (INH)” value against Cytochrome P450 1A2 is 1%; against Cytochrome P450 2D6 it was 61.2%; at Cytochrome P450 2C9, 13.1%; against Cytochrome P450 3A4, 7.8%; against Cytochrome P450 2C19, 1.6%. The t1/2 in data set [9] is on record as more than 145 min; in data set [10] it was 41.9 min. For the same compound, the Imax in [1] stood at 157%.

Compound `C=CCN1CC[C@]23c4c5ccc(O)c4O[C@H]2C(=O)CC[C@@]3(O)[C@H]1C5` [NALOXONE] showed a half-life in data set [12] of 20.9 min.

On to `C[C@H]1CN(CC[C@H](O)C2CCCCC2)CC[C@@]1(C)c1cccc(O)c1`, for which the inhibition at 10 µM at CYP1A2 stood at 14.5%; at CYP2D6, 86.4%; against CYP2C9 it was 11.9%; against CYP3A4, 0%; at CYP2C19 it was 35.1%. Further, the results for the half-life in data set [9] (liver microsomes) and in data set [10] (liver microsomes) were 6.4 min and 1.9 min, respectively. Besides, 3.98 nM corresponded to half-maximal inhibition in data set [8] (IC50). Further, the Imax in data set [1] is 155%.

`COc1cc(CNCCC2CCCCC2)ccc1Oc1ccc(C(N)=O)cn1` had an IC50 on Mu-type opioid receptor of 3.16 nM. This lies in the single-digit nanomolar range.

`NC(=O)c1ccc(Oc2ccc(CNCCc3ccccc3)cc2)nc1` [listing 2 of 2 here]: the half-inhibitory concentration (IC50) in data set [13] was 4980 nM; in data set [14], 1500 nM; in data set [15] it was 5550 nM; in data set [17] it was 3740 nM; in [18] it was 3020 nM. The “inhibition (INH)” value turned out to be 0.6% against Cytochrome P450 1A2, 72.7% at Cytochrome P450 2D6, 6.8% against Cytochrome P450 3A4 and 11.6% against Cytochrome P450 2C19. Further, at hERG (KCNH2), the Emax was determined as 63.7%. In addition, the CLH in data set [16] worked out at 22.05 µL/min/mg. Moreover, the t1/2 in data set [9] is given as more than 145 min; in data set [10], 62.9 min.

As for `Cl.NC(=O)c1ccc(Oc2ccc(CNCCc3ccccc3)cc2)nc1`, the half-life is 20.9 min in data set [12] and 91.2 min in data set [22]. The Cmax in data set [19] amounted to 182 ng/mL; in data set [20] it was 92.8 ng/mL. Further, the Drug uptake result in data set [21] is listed as “Not_active”.
